In ChEMBL document CHEMBL1149564, “Synthesis and bioevaluation of N-(arylalkyl)-homospermidine conjugates” (Bioorg Med Chem Lett, 2007):
pIC50: −log10 of the molar value.

Experiments:
B16 [1] = experiment: Induction of apoptosis in B16 cells at 0.1 uM after 24 hrs; type: functional, Mus musculus
B16 [2] = experiment: Ratio of IC50 for mouse B16 cells in presence of SPD to IC50 for mouse B16 cells; type: functional
B16 [3] = experiment: Cell cycle arrest in B16 cells by accumulation at G1 phase at 1 uM after 24 hrs; type: functional, Mus musculus
B16 [4] = experiment: Cell cycle arrest in B16 cells by accumulation at G2 phase at 0.1 uM after 24 hrs; type: functional, Mus musculus
B16 [5] = experiment: Induction of apoptosis in B16 cells at 1 uM after 24 hrs; type: functional, Mus musculus
B16 [6] = experiment: Cytotoxicity against mouse B16 cells by MTT assay; type: functional, cell-based
L1210 [7] = experiment: Ratio of IC50 for mouse L1210 cells to IC50 for mouse L1210 cells in presence of […]; type: functional
B16 [8] = experiment: Cell cycle arrest in B16 cells by accumulation at S phase at 1 uM after 24 hrs; type: functional, Mus musculus
HeLa = experiment: Cytotoxicity against human HeLa cells by MTT assay; type: functional, cell-based
B16 [9] = experiment: Cell cycle arrest in B16 cells by accumulation at S phase at 0.1 uM after 24 hrs; type: functional, Mus musculus
B16 [10] = experiment: Cell cycle arrest in B16 cells by accumulation at G2 phase at 1 uM after 24 hrs; type: functional, Mus musculus
B16 [11] = experiment: Cell cycle arrest in B16 cells by accumulation at G1 phase at 0.1 uM after 24 hrs; type: functional, Mus musculus
L1210 [12] = experiment: Cytotoxicity against mouse L1210 cells by MTT assay; type: functional, cell-based
FL5.12 [13] = experiment: Induction of apoptosis in BALB/c mouse FL5.12A pro-B cells in the presence of 2 ng/mL IL3; type: functional
FL5.12 [14] = experiment: Induction of apoptosis in BALB/c mouse FL5.12A pro-B cells in the presence of 0.1 ng/mL IL3; type: functional
FL5.12 [15] = experiment: Induction of apoptosis in BALB/c mouse FL5.12A pro-B cells; type: functional

Row | SMILES | Ratio IC50 (B16 [2]) | pIC50 (B16 [6]) | Ratio IC50 (L1210 [7]) | pIC50 (HeLa) | pIC50 (L1210 [12]) | also measured
1 | Cl.NCCCCNCCCCNCc1c2ccccc2cc2ccccc12 | 6.6 | 6.51 | 1.33 | 5.96 | 5.32 | Activity (B16 [1]): 12.49%; Activity (B16 [3]): 80.19%; Activity (B16 [4]): 10.72%; Activity (B16 [5]): 37.26%; Activity (B16 [8]): 10.1%; Activity (B16 [9]): 11.29%; Activity (B16 [10]): 10.1%; Activity (B16 [11]): 77.99%
2 | COc1ccc2cc(CNCCCCNCCCCN3CCNCC3)ccc2c1.Cl | – | < 4.30 | 1.76 | 4.95 | 4.82 | –
3 | COc1ccc2cc(CNCCCCNCCCCN)ccc2c1.Cl | 3.6 | 5.31 | 2.69 | 5.92 | 4.82 | –
4 | Cl.c1ccc2c(CNCCCCNCCCCN3CCNCC3)cccc2c1 | 2.3 | 5.26 | >1 | 5.44 | < 4.30 | –
5 | CCCCNCc1ccc(-c2ccccc2)cc1 | – | 4.96 | – | 4.96 | – | –
6 | Cl.NCCCCNCCCCNCC1CCCc2ccccc21 (stereo not given) | 1.7 | 5.16 | 1.63 | – | 4.83 | –
7 | CCCCNCc1ccc2cc(OC)ccc2c1 | – | 4.82 | – | 4.90 | – | –
8 | Cl.NCCCCNCCCCNCc1cccc2ccccc12 | 2.5 | 5.63 | 1.58 | 5.86 | 5.09 | –
9 | Cl.NCCCCNCCCCNCc1ccc(-c2ccccc2)cc1 | 2.4 | 5.91 | 2.05 | 5.44 | 5.00 | Activity (B16 [1]): 17.35%; Activity (B16 [3]): 39.13%; Activity (B16 [4]): 10.45%; Activity (B16 [5]): 42.47%; Activity (B16 [8]): 68.83%; Activity (B16 [9]): 40.37%; Activity (B16 [10]): 0.04%; Activity (B16 [11]): 49.18%
10 | N=C(N)NN [PIMAGEDINE] | – | – | – | – | – | Activity (FL5.12 [13]): 5%; Activity (FL5.12 [14]): 3%; Activity (FL5.12 [15]): 80%
11 | Cl.c1ccc(-c2ccc(CNCCCCNCCCCN3CCNCC3)cc2)cc1 | – | < 4.30 | 2.71 | 4.57 | 4.69 | –
12 | Cl.c1ccc2c(CNCCCCNCCCCN3CCNCC3)c3ccccc3cc2c1 | 2 | 5.22 | >2.5 | 5.02 | < 4.30 | –
13 | Cl.NCCCCNCCCCNCc1ccc2ccccc2c1 | 3.8 | 5.78 | 2.08 | 5.72 | 4.77 | –
14 | Cl.c1ccc2cc(CNCCCCNCCCCN3CCNCC3)ccc2c1 | 9 | 5.54 | 1.53 | 5.43 | 4.45 | –
